Laboratory results from patent US7355004B2, “Protein lipase inhibitor for flour and dough” (Danisco A/S, priority 2002, dated 2008).

Legend:
[1] = system: purified Lipase 3 from Aspergillus niger; assay: p-Nitrophenol-acetate assay, determination of Km for purified Lipase 3; type: biochemical
Description: (§1) Lipase activity was determined colorimetrically using p-nitrophenyl acetate as a substrate. In a microtiter plate was added 10 μl of sample or blank then 250 μl of substrate was added (0.5 mg p-nitrophenyl acetate/ml of 50 mM phosphate buffer, pH 6.5). The microtiterplate was incubated for 5 min. at 30° C. and the absorbance at 405 nm was then read in a microplate reader.
A 60 ml sample of Grindlipase (Danisco A/S) a ferment of Aspergillus niger, pH 5.5 was first filtered through GF/B filter and then through 0.45 μm filter. The filtered sample was then desalted on a Superdex G25 SP column (430 ml, 22×5 cm) equilibrated in 20 mM triethanolamin, pH 7.3. Flow 5 ml/min. The total volume after desalting was 150 ml.
The desalted sample was applied to a Source Q30 anion exchange column (100 ml, 5×5 cm) equilibrated in 20 mM triethanolamine, pH 7.3. The column was washed with equilibration buffer until a stable baseline was obtained. Lipase activity was then eluted with a 420 ml linear gradient from 0 to 0.35 M NaCl in equilibration buffer, flow […]. Fractions of 10 ml were collected. […]
To the pool from anion exchange was added ammonium sulfate to 1 M and the sample was applied to a Source Phenyl HIC column (20 ml, 10 x 2 cm) equilibrated in 20 mM sodium-acetate (pH 5.5), 1M (NH4)2SO4. […] Fractions 33-41 were analyzed by SDS-PAGE and fraction 40 and 41 contained pure lipase. […]

[2] = system: commercial lipase #1646; assay: p-Nitrophenol-acetate assay, determination of Km for another commercial lipase (#1646); type: biochemical; conditions: pH 6.5, 50 mM phosphate buffer, 30° C., 405 nm; substrate 0.1 to 0.75 mg/ml; fit to non-competitive kinetics not accepted
Description: as §1
Kinetic data were fitted to v=VmaxS/(Km+S) where Vmax is maximum velocity, S is substrate concentration, and Km is the concentration giving half maximal rate (Michaelis constant), using the EZ-FIT curve-fitting microcomputer program [Perrella, (1988) EZ-FIT: A practical curve-fitting microcomputer program for the analysis of enzyme kinetic data on IBM-PC compatible computers. Anal. Biochem. 174: 437-447]. To determine Ki the data were fitted to the formulas for non-competitive, competitive, un-competitive and the model showing the best fit (non-competitive) were used to determine Ki. The program uses the Nelder-Mead simplex optimization of initial guesses followed by Marquardt nonlinear regression algorithm for least squares optimization. Run's statistic is used to determine if the fitted curve goes through the data points or whether a systematic departure from the curve exists. The fitted parameter values and standard error are tested for significance by the Student t test.

CC(=O)Oc1ccc([N+](=O)[O-])cc1 [p-nitrophenyl acetate]
Km for p-nitrophenyl acetate ([1]; pH 6.5, 50 mM phosphate buffer, 30° C., 405 nm, four levels of lipase inhibitor, fit to non-competitive model): 0.67 ± 0.04 mg/mL
Km for lipase with respect to p-nitrophenyl acetate (in words) ([1]; under the conditions in the assay): higher than the maximum solubility for p-nitrophenyl acetate
Km for p-nitrophenyl acetate [2]: 2.0 ± 0.6 mg/mL
